Source: patent publication US11214594B2, “Antimicrobial peptide having synergistic antibacterial effect with antibiotics on multidrug resistant bacteria, and use thereof” (priority 2016, dated 2022)
In brackets after ≈: the same amount, converted by molar mass. Where two headings read alike, the source gives them in different places. Where a SMILES comes first, the peptide text is derived from it.

Legend:
[1] = tested on: MDRAB 12035; experiment: MIC of antibiotic during combined treatment with antimicrobial peptide; assay type: cell-based, Acinetobacter baumannii
How it was run: (§1)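 Antibiotic MIC came from antibiotic dilutions added to bacteria (2×10^6 CFU/ml, MH medium) already combined with peptide serially diluted 2:1 from its own MIC. Swapping the roles of the two agents gave the peptide MIC.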

[2] = tested on: MDRPA 2002; assay type: cell-based, Pseudomonas aeruginosa
How it was run: (§2)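 Each strain is brought to 2×10^6 CFU in nutrient-sufficient Mueller-Hinton medium and dispensed into wells. Peptide solutions, stepwise diluted 2:1 in the same medium, are then added. The minimal concentration preventing growth gives the MIC.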

[3] = tested on: MDRPA 2003; assay type: cell-based, Pseudomonas aeruginosa
How it was run: as §2

[4] = tested on: E. coli; assay type: cell-based, Escherichia coli; conditions: E. coli
How it was run: as §1

[5] = tested on: MDREC 1229; assay type: cell-based, Escherichia coli
How it was run: as §1

[6] = tested on: A. baumannii; experiment: MIC of antibiotic during combined treatment with antimicrobial peptide; assay type: cell-based, Acinetobacter baumannii; conditions: for Antibiotic MIC, Erythromycin / Antibiotic MIC, Linezolid / Antibiotic MIC, Vancomycin: A. baumannii
How it was run: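 MIC values for mixed peptide plus antibiotic solutions were measured in MH medium.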

[7] = tested on: B. subtilis; experiment: microbe, parasite or virus in culture; assay type: cell-based, Bacillus subtilis
How it was run: as §2

[8] = tested on: MDRAB 12035; experiment: microbe, parasite or virus in culture; assay type: cell-based, Acinetobacter baumannii
How it was run: as §2

[9] = tested on: A. baumannii; experiment: microbe, parasite or virus in culture; assay type: cell-based, Acinetobacter baumannii
How it was run: as §2

[10] = tested on: gram-negative bacteria; experiment: MIC, summary statements for gram-negative bacteria; assay type: cell-based; conditions: gram-negative bacteria
How it was run: as §2

[11] = peptide treatment concentration 1 μg/ml
[12] = peptide treatment concentration 2 μg/ml
[13] = peptide treatment concentration 4 μg/ml
[14] = peptide treatment concentration 6 μg/ml
[15] = peptide treatment concentration 8 μg/ml
[16] = peptide treatment concentration 16 μg/ml
[17] = peptide treatment concentration 32 μg/ml
[18] = peptide treatment concentration 64 μg/ml
[19] = with Erythromycin […] (Conc./MIC 1)
[20] = combined with peptide at 1 μg/ml
[21] = combined with peptide at 2 μg/ml
[22] = combined with peptide at 4 μg/ml
[23] = combined with peptide at 6 μg/ml
[24] = combined with peptide at 8 μg/ml
[25] = combined with peptide at 16 μg/ml
[26] = combined with peptide at 32 μg/ml
[27] = combined with peptide at 64 μg/ml

CC[C@H](C)[C@H](NC(=O)[C@H](CCCCN)NC(=O)[C@H](Cc1c[nH]c2ccccc12)NC(=O)[C@@H](N)CCCNC(=N)N)C(=O)N[C@@H](Cc1ccccc1)C(=O)N[C@@H](CCCCN)C(=O)N[C@@H](CCCCN)C(=O)N[C@H](C(=O)N1CCC[C@H]1C(=O)N[C@@H](CCCCN)C(=O)N[C@@H](Cc1ccccc1)C(=O)N[C@@H](CC(C)C)C(=O)N[C@@H](Cc1c[nH]cn1)C(=O)N[C@@H](CO)C(=O)N[C@@H](Cc1c[nH]c2ccccc12)C(=O)N[C@@H](CCCCN)C(=O)N[C@@H](CCCCN)C(=O)N[C@@H](Cc1ccccc1)C(N)=O)[C@@H](C)CC [PapMA-3, RWK IFK KIP KFL HSW KKF-NH2] (H-RWKIFKKIPKFLHSWKKF-NH2; N-terminus assumed)
Erythromycin MIC during combined treatment with peptide [1, 11]: 32 µg/mL | Linezolid MIC during combined treatment with peptide [1, 11]: >128 µg/mL | Vancomycin MIC during combined treatment with peptide [1, 11]: >128 µg/mL | Erythromycin MIC during combined treatment with peptide [1, 12]: 16 µg/mL | Linezolid MIC during combined treatment with peptide [1, 12]: 128 µg/mL | Vancomycin MIC during combined treatment with peptide [1, 12]: >128 µg/mL | Erythromycin MIC during combined treatment with peptide [1, 13]: 8 µg/mL | Linezolid MIC during combined treatment with peptide [1, 13]: 32 µg/mL | Vancomycin MIC during combined treatment with peptide [1, 13]: 128 µg/mL | Erythromycin MIC during combined treatment with peptide [1, 14]: 4 µg/mL | Linezolid MIC during combined treatment with peptide [1, 14]: 32 µg/mL | Vancomycin MIC during combined treatment with peptide [1, 14]: 32 µg/mL | Erythromycin MIC during combined treatment with peptide [1, 15]: 0.25 µg/mL | Linezolid MIC during combined treatment with peptide [1, 15]: 16 µg/mL | Vancomycin MIC during combined treatment with peptide [1, 15]: 16 µg/mL | Erythromycin MIC during combined treatment with peptide [1, 16]: 0 µg/mL | Linezolid MIC during combined treatment with peptide [1, 16]: 0 µg/mL | Vancomycin MIC during combined treatment with peptide [1, 16]: 0 µg/mL | Erythromycin MIC during combined treatment with peptide [1, 17]: 0 µg/mL | Linezolid MIC during combined treatment with peptide [1, 17]: 0 µg/mL | Vancomycin MIC during combined treatment with peptide [1, 17]: 0 µg/mL | Erythromycin MIC during combined treatment with peptide [1, 18]: 0 µg/mL | Linezolid MIC during combined treatment with peptide [1, 18]: 0 µg/mL | Vancomycin MIC during combined treatment with peptide [1, 18]: 0 µg/mL | Minimal inhibitory concentration MIC [2]: 16 µg/mL (≈ 6.62 µM) | Minimal inhibitory concentration MIC [3]: 16 µg/mL (≈ 6.62 µM) | Peptide MIC [4, 19]: 0 µg/mL | Peptide MIC ([4]; with Linezolid […] (Conc./MIC 1)): 0 µg/mL | Peptide MIC ([4]; with Vancomycin 1024 μg/ml (Conc./MIC 1)): 0 µg/mL | Peptide MIC [5, 19]: 0 µg/mL | Peptide MIC ([5]; with Linezolid 512 μg/ml (Conc./MIC 1)): 0 µg/mL | Synergistic effect of antibacterial activity with existing antibiotics compared with PapMA-1 ([6]; A. baumannii and MDRAB 12035): higher level than the PapMA-1 peptide | Antibiotic MIC, Erythromycin [6, 20]: 32 µg/mL | Antibiotic MIC, Linezolid [6, 20]: >128 µg/mL | Antibiotic MIC, Vancomycin [6, 20]: >128 µg/mL | Antibiotic MIC, Erythromycin [6, 21]: 16 µg/mL | Antibiotic MIC, Linezolid [6, 21]: 64 µg/mL | Antibiotic MIC, Vancomycin [6, 21]: 128 µg/mL | Antibiotic MIC, Erythromycin [6, 22]: 8 µg/mL | Antibiotic MIC, Linezolid [6, 22]: 32 µg/mL | Antibiotic MIC, Vancomycin [6, 22]: 64 µg/mL | Antibiotic MIC, Erythromycin [6, 23]: 1 µg/mL | Antibiotic MIC, Linezolid [6, 23]: 16 µg/mL | Antibiotic MIC, Vancomycin [6, 23]: 32 µg/mL | Antibiotic MIC, Erythromycin [6, 24]: 0.125 µg/mL | Antibiotic MIC, Linezolid [6, 24]: 8 µg/mL | Antibiotic MIC, Vancomycin [6, 24]: 32 µg/mL | Antibiotic MIC, Erythromycin [6, 25]: 0 µg/mL | Antibiotic MIC, Linezolid [6, 25]: 0 µg/mL | Antibiotic MIC, Vancomycin [6, 25]: 0 µg/mL | Antibiotic MIC, Erythromycin [6, 26]: 0 µg/mL | Antibiotic MIC, Linezolid [6, 26]: 0 µg/mL | Antibiotic MIC, Vancomycin [6, 26]: 0 µg/mL | Antibiotic MIC, Erythromycin [6, 27]: 0 µg/mL | Antibiotic MIC, Linezolid [6, 27]: 0 µg/mL | Antibiotic MIC, Vancomycin [6, 27]: 0 µg/mL | Minimal inhibitory concentration MIC [7]: >128 µg/mL | Minimal inhibitory concentration MIC [8]: 16 µg/mL (≈ 6.62 µM) | Peptide MIC, peptide alone [8]: 16 µg/mL | Minimal inhibitory concentration MIC [9]: 16 µg/mL (≈ 6.62 µM) | Peptide MIC, peptide alone [9]: 16 µg/mL | Antibacterial activity relative to PapMA-1 ([9]; A. baumannii and antibiotic-resistant strains thereof): 4 times | Antibacterial activity (in words) [10]: comparable to papiliocin or melittin
